Experimental data as given in the supplement of paper PMC10307832.

Key:
Experiment in all cases: relative viability (nuclei count vs DMSO), 5 days (fraction); higher = more cells survive
Afatinib + Vorinostat = compound: CN(C)C/C=C/C(=O)Nc1cc2c(Nc3ccc(F)c(Cl)c3)ncnc2cc1O[C@H]1CCOC1 [Afatinib] + O=C(CCCCCCC(=O)Nc1ccccc1)NO [Vorinostat] (partner 1 µM)
Method in brief: (§1)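 Lung cancer cell lines in 1536-well plates were dosed by pin tool the day after seeding, either with one drug alone or with a fixed anchor-drug dose plus five library-drug doses (not always all listed) in √10 steps. After 5 days, cells were fixed and their nuclei stained in one step (final 0.05% Triton X-100, 1% formaldehyde, 1 ug/ml Hoechst), then counted on 4× images. Relative viability is the nuclei count in treated wells divided by that in vehicle wells. Values are medians of duplicate plates.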

Afatinib + Palbociclib = compound: CN(C)C/C=C/C(=O)Nc1cc2c(Nc3ccc(F)c(Cl)c3)ncnc2cc1O[C@H]1CCOC1 [Afatinib] + CC(=O)c1c(C)c2cnc(Nc3ccc(N4CCNCC4)cn3)nc2n(C2CCCC2)c1=O [Palbociclib] (partner 0.5 µM)
Method in brief: as §1

Afatinib + AZD7762 = compound: CN(C)C/C=C/C(=O)Nc1cc2c(Nc3ccc(F)c(Cl)c3)ncnc2cc1O[C@H]1CCOC1 [Afatinib] + NC(=O)Nc1cc(-c2cccc(F)c2)sc1C(=O)N[C@H]1CCCNC1 [AZD7762] (partner 0.2 µM)
Method in brief: as §1

Afatinib + Crizotinib = compound: CN(C)C/C=C/C(=O)Nc1cc2c(Nc3ccc(F)c(Cl)c3)ncnc2cc1O[C@H]1CCOC1 [Afatinib] + C[C@@H](Oc1cc(-c2cnn(C3CCNCC3)c2)cnc1N)c1c(Cl)ccc(F)c1Cl [Crizotinib] (partner 1 µM)
Method in brief: as §1

Cell Line	relative viability (Afatinib + Vorinostat; first compound 0.005 µM)	relative viability (Afatinib + Vorinostat; first compound 0.01581 µM)	relative viability (Afatinib + Vorinostat; first compound 0.05 µM)	relative viability (Afatinib + Vorinostat; first compound 0.1581 µM)	relative viability (Afatinib + Vorinostat; first compound 0.5 µM)	relative viability (Afatinib + Palbociclib; first compound 0.005 µM)	relative viability (Afatinib + Palbociclib; first compound 0.01581 µM)	relative viability (Afatinib + Palbociclib; first compound 0.05 µM)	relative viability (Afatinib + Palbociclib; first compound 0.1581 µM)	relative viability (Afatinib + Palbociclib; first compound 0.5 µM)	relative viability (Afatinib + AZD7762; first compound 0.005 µM)	relative viability (Afatinib + AZD7762; first compound 0.01581 µM)	relative viability (Afatinib + AZD7762; first compound 0.05 µM)	relative viability (Afatinib + AZD7762; first compound 0.1581 µM)	relative viability (Afatinib + AZD7762; first compound 0.5 µM)	relative viability (Afatinib + Crizotinib; first compound 0.005 µM)	relative viability (Afatinib + Crizotinib; first compound 0.01581 µM)	relative viability (Afatinib + Crizotinib; first compound 0.05 µM)	relative viability (Afatinib + Crizotinib; first compound 0.1581 µM)	relative viability (Afatinib + Crizotinib; first compound 0.5 µM)
HOP-62	0.736	0.655	0.746	0.727	0.673	0.415	0.431	0.523	0.48	0.445	0.561	0.512	0.571	0.64	0.471	1.04	0.883	1.11	1.05	0.969
LC-2-ad	0.767	0.717	0.705	0.662	0.78	0.494	0.489	0.483	0.447	0.477	0.782	0.713	0.559	0.411	0.46	0.566	0.422	0.409	0.382	0.408
LCLC-97TM1	0.793	0.784	0.861	0.628	0.646	0.222	0.232	0.23	0.239	0.201	0.164	0.259	0.186	0.42	0.18	0.491	0.337	0.329	0.242	0.308
LCLC-103H	0.809	0.817	0.703	0.732	0.704	0.452	0.495	0.443	0.436	0.485	0.758	0.814	0.758	0.781	0.78	1	1.14	1.03	0.911	1.17
LK-2	0.349	0.269	0.277	0.2	0.382	0.621	0.633	0.656	0.673	0.584	0.465	0.328	0.371	0.329	0.521	0.201		0.195	0.234	0.243
LOU-NH91	0.742	0.776	0.837	0.748	0.848	0.533	0.535	0.538	0.564	0.538	0.707	0.704	0.76	0.679	0.637	0.523	0.574	0.69	0.488	0.542
LU99A	0.467	0.61	0.487	0.419	0.502	0.451	0.39	0.425	0.36	0.391	0.238	0.41	0.37	0.257	0.293	0.591	0.54	0.539	0.55	0.525
LXF-289	0.762	0.678	0.748	0.753	0.716	0.604	0.561	0.553	0.486	0.533	1.05	1.03	1.11	1.02	1.02	0.845	0.777	0.793	0.7	0.811
NCI-H23	0.787	0.589	0.615	0.619	0.591	0.561	0.469	0.482	0.486	0.448	0.17	0.226	0.237	0.23	0.195	0.516	0.459	0.612	0.44	0.639
NCI-H322M	0.825	0.506	0.658	0.61	0.567	0.467	0.434	0.394	0.358	0.378	0.433	0.407	0.389	0.402	0.348	0.775	0.676	0.544	0.359	0.293
NCI-H358	0.514	0.432	0.375	0.207	0.253	0.14	0.111	0.12	0.118	0.0955	0.406	0.373	0.284	0.273	0.22	0.541	0.423	0.387	0.241	0.256
NCI-H441	0.791	0.94	0.737	0.878	0.698	0.234	0.231	0.163	0.183	0.207	1.56	0.993	1.09	1.16	1.1	0.691	0.789	0.85	0.841	0.652
NCI-H460	0.892	0.767	0.722	0.702	0.686	0.165	0.175	0.237	0.184	0.242	0.396	0.595	0.62	0.635	0.603	0.878	0.748	0.885	0.809	0.875
NCI-H647	0.493	0.513	0.595	0.523	0.524	0.37	0.335	0.385	0.368	0.312	0.32	0.426	0.403	0.525	0.466	1.26	1.13	1.01	1.04	1.19
NCI-H1648	0.398	0.421	0.271	0.421	0.26	0.248	0.304	0.269	0.344	0.263	0.735	0.596	0.531	0.58	0.546					
NCI-H1793	0.733	0.424	0.411	0.401	0.38	0.258	0.3	0.273	0.218	0.21	0.193	0.304	0.451	0.268	0.231					
NCI-H2342	0.706	0.628	0.729	0.695	0.696	0.528	0.497	0.473	0.424	0.475	0.562	0.488	0.477	0.434	0.474					
